Results taken from US11630102B2, “Composition and method for modulating fibroblast growth factor receptor 3 activation” (ACADEMIA SINICA, priority 2017, dated 2023).
“Also recorded” adds a separate entry of the source. Read-outs that look alike come from different tables or passages of the source.

What was measured:
TDI FGFR3 [1] = target: T1, TDI FGFR3 (Homo sapiens, UniProt P22607, Y373C); assay: cell-based translocation assay (ring spot count, high-content imaging); conditions: for inhibition of FGFR3 activation (in words): cells stably expressing SH2(SH2B)-RrGFP and TDI FGFR3
T1 sequence (P22607 23-806 Y373C): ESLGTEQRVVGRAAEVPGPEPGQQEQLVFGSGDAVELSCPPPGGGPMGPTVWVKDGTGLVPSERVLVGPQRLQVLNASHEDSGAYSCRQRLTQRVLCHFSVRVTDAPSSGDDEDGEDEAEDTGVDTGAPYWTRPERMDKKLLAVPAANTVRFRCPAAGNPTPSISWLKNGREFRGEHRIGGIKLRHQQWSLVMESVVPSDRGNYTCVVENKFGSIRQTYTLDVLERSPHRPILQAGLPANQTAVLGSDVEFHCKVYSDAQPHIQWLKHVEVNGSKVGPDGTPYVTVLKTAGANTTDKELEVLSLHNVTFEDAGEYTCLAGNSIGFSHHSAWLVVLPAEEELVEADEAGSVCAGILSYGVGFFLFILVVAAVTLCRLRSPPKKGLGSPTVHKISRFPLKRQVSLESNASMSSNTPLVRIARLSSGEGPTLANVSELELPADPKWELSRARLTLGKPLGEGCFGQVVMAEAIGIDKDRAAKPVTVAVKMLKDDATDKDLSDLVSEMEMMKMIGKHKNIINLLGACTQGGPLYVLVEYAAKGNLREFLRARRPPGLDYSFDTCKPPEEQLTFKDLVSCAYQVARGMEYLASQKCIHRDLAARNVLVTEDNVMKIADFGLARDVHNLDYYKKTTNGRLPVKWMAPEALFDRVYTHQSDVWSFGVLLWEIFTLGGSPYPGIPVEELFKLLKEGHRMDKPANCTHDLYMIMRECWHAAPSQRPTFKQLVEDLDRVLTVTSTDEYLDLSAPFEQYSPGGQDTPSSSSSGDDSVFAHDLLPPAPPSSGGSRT
Description: (§2) PKC412 was prepared as a 6% (w/w) stock in DMSO. Live-cell imaging was performed at 37° C. under humidified conditions in a 5% CO2 incubator.
(§3) For high-content screening, all steps of sample-plate preparation, including compound treatment, fixation and plate washing, were fully automated and were performed using a Bio-Tek EL405uv system (Bio-Tek Instruments, Inc., Winooski, Vt., USA). U2OS cells stably expressing TDI FGFR3 and SI-12-RrGFP were seeded at a density of 4×10^3 cells/well in black 96-well Packard Viewplates, incubated overnight in complete medium at 37° C. in a CO2 incubator, and then transferred to 100 μl serum-free medium containing PKC412 or plant extract. The final DMSO concentration was 1%. After incubating for 1 hour at 37° C. in a CO2 incubator, cells were fixed with 4.5% formaldehyde and cell nuclei were labeled with a 2 μg/ml Hoechst stain solution (Sigma-Aldrich).
(§4) Cell images were automatically obtained using an ArrayScan VTI HCS Reader (Cellomics, Pittsburgh, Pa., USA). Filter sets appropriate for detecting the two fluorophores were used, and a 20×0.4 numerical aperture microscope objective was used for imaging. The Compartmental Analysis BioApplication (Cellomics) was used to analyze the images after optimization of the application's protocol settings. For these analyses, the Compartmental Analysis used the Hoechst-labeled nuclei to identify individual cells, and the nucleus (Circle) and cytoplasmic area (Ring) of the cells were defined by parameter settings in the software. The GFP spots in the Ring region were defined and the spot numbers (Ring Spot Count) and spot intensity (Ring Spot Intensity) were quantified by the software.

TDI FGFR3 [2] = target: T1, TDI FGFR3
Description: as §2, §3, §4

[3] = solubility of Pa derivatives compared to Pa; format: physicochemical
FGFR3^ACH/ACH mice = assay: treatment of achondroplasia mice; format: in vivo; conditions: 0.09 mg/g/mouse for 7 weeks from 7 days of age
Description: Femurs of mice were dissected and the flesh was removed. The lengths of the femurs were measured using a millimetre-scale calliper ruler.
(§1) FGFR3^ACH/ACH mice beginning at 7 days of age were treated once-daily with 0.2 mg/g/mouse plant active fractions F4 and F4-IS11 by gavage in 200 μl PBS for 4 or 7 weeks. Control wild type littermates (WT) and FGFR3^ACH/ACH mice were treated with vehicle control. In additional studies, mice were treated with 0.09 mg/g/mouse purified Pa or vehicle control in a similar manner. Body weight and body length were measured weekly.
Skeletons were analyzed by […] (Skyscan 1076 system, Bruker, Brussels, Belgium) as described above.

KMS-11 cells = assay: KMS-11 cell proliferation assay (WST-1); format: cell-based, human; conditions: FGFR3-dependent growth (Y373C FGFR3)
Description: Cell proliferation was determined by a colorimetric assay of cell viability based on the cleavage of the tetrazolium salt WST-1 (Roche) by mitochondrial dehydrogenases. Cells were grown in serum-free conditions for 24 h and then were seeded in 96-well plates at a density of 50,000 cells/well in RPMI. Cells were incubated with 1 nM aFGF and 50 μg/ml heparin and various doses of plant extracts in 200 μl RPMI at a final concentration of 1% DMSO. Plates were incubated for 72 h at 37° C., 5% CO2. The WST-1 assay was performed according to the manufacturer's instructions. The absorbance of the formazan dye formed, which correlates with the number of metabolically active cells in the culture, was measured at 450 nm and 690 nm 1 h after adding the reagent. Each experimental condition was performed in triplicate.
The effects of hit 4, hit 4-1, and hit 4-2 were examined on the growth of human myeloma cell line KMS-11 […] expressing TDI FGFR3. KMS-11 cells were stimulated with aFGF/heparin and incubated with DMSO negative control, PKC412 positive control, or 10 μg/ml and 100 μg/ml doses of each tested plant extract. Cell growth was measured as described above.
Fractions were analyzed for their ability to inhibit the FGFR3 activity-dependent growth of human myeloma cell line KMS-11 as described above in Example 3.

WT mice = assay: treatment of wild-type mice with Pa; format: in vivo; conditions: 0.09 mg/g/mouse for 7 weeks from 7 days of age
Description: as §1
As mentioned above, Pa was identified as an active compound in the A. viridis extract by means of the method set forth above in Example 4. WT and FGFR3^ACH mice at 7 days of age were treated with vehicle (DMSO) or with 0.09 mg/g/mouse Pa for 7 weeks. The body weight of treated mice was measured weekly.

inhibition of FGFR3 activation (in words) (TDI FGFR3 [1])	Molecule	further results
did not	NCC(=O)CCC(=O)O [5-aminolevulinic acid, reference compound]	
	CO[C@@H]1[C@H](N(C)C(=O)c2ccccc2)C[C@H]2O[C@]1(C)n1c3ccccc3c3c4c(c5c6ccccc6n2c5c31)C(=O)NC4 [PKC412, reference compound]	time to disappearance of punctate GFP signals after treatment (TDI FGFR3 [1]; SH2(SH2B)-RrGFP and TDI FGFR3 expressing cells, not seen with DMSO): ≤ 1 h
	Oc1cccc(-c2c3nc(c(-c4cccc(O)c4)c4ccc([nH]4)c(-c4cccc(O)c4)c4nc(c(-c5cccc(O)c5)c5ccc2[nH]5)CC4)C=C3)c1 [temoporfin]	inhibition of FGFR3 activation (in words) (TDI FGFR3 [2]): had FGFR3 inhibition activity
comparable FGFR3 inhibition activities	HCl-N-pheophorbide a [HCl-N-Pa]	solubility as compared to Pa [3]: enhanced solubility
comparable FGFR3 inhibition activities	Na-pheophorbide a [NA-Pa]	solubility as compared to Pa [3]: enhanced solubility
had FGFR3 inhibition activity	chlorophyllin A [reference compound]	
inhibit FGFR3 activation	pheophorbide a [Pa]	body weight vs DMSO-treated mice (FGFR3^ACH/ACH mice): increased body weight; inhibition of KMS-11 cell proliferation (KMS-11 cells): inhibited FGFR3-dependent cell proliferation; body weight vs DMSO-treated mice (WT mice): increased body weight
had FGFR3 inhibition activity	pyropheophorbide-a methyl ester [reference compound]	

Molecule	inhibition of FGFR3 activation (in words) (TDI FGFR3 [1])	further results
Pyropheophorbide a [PyroPa]	inhibit FGFR3 activation; also recorded: stronger than any of the tested photosensitizers	
